Biological target: T1, Organic cation/carnitine transporter 2 (Homo sapiens, UniProt O76082)
T1 sequence (O76082 whole entry): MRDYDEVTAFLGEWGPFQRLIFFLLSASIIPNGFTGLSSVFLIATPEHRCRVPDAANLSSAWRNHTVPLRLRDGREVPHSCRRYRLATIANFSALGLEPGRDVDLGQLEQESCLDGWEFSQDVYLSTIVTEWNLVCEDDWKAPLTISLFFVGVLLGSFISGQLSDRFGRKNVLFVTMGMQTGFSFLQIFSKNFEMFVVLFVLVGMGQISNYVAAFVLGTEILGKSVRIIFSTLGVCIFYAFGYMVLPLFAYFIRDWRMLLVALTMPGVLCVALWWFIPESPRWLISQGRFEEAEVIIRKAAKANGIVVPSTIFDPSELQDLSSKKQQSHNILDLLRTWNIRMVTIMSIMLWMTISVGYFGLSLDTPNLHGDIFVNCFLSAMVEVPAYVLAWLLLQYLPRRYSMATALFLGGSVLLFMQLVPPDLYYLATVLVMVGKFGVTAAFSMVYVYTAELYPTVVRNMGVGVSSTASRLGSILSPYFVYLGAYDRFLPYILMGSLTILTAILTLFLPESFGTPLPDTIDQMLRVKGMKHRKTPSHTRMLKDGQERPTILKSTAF
Assay: TP_TRANSPORTER: inhibition of Carnitine uptake (Carnitine: 0.02 uM, PCG: 2500 uM) in OCTN2-expressing HeLa cells
Format: functional, cell-based

Activity: is not an inhibitor [-]
SMILES: CC1(C)S[C@@H]2[C@H](NC(=O)Cc3ccccc3)C(=O)N2[C@H]1C(=O)O [PENICILLIN G]

Source: ChEMBL document CHEMBL2074042, “beta-lactam antibiotics as substrates for OCTN2, an organic cation/carnitine transporter” (J Biol Chem, 2000)
